Results as given in patent US20230356105A1, “TETRAAZADODECANE BASED CHELATING AGENTS FOR SEPARATION OF RARE EARTH ELEMENTS AND METHOD THEREFOR” (Ustav Organicke Chemie a Biochemie AV CR V.V.I., priority 2020, published 2023).

Experiment: Use of additives to improve separation of Nd/Dy mixture by precipitation with L5 (Example 18)
Type: physicochemical
Settings: 11 mM L5
Experimental: Stock solutions were pipetted into plastic 1×1 cm cuvettes to prepare reaction mixtures with concentrations as follows: • 1. […] 5 mM NdCl3 • 3. 5 mM DyCl3 • 4. 500 mM MOPS pH=7 • 5. the additive of interest, in a variable concentration; if possible, stock solutions were prepared from Na^+ salt forms of the compound; if not, the stock solutions were titrated by NaOH/HCl to pH=7 prior to addition (see Table 12 for additives and concentrations)
These aqueous reaction mixtures, each prepared to a total volume of 2.0 mL with the addition of water as necessary, were mixed by the use of a PTFE-coated stir bar on a magnetic stirrer. The cuvettes were sealed with transparent tape to prevent evaporation overnight. The reaction mixtures were stirred for 18 hours, at which point 500 μL aliquots of each reaction mixture were transferred into plastic 2 mL Eppendorf tubes and centrifuged. The supernatants were carefully pipetted out and transferred to a new set of tubes. The precipitate was dissolved by addition of 500 μL 1M HCl. The absolute concentration of Nd and Dy in each supernatant and precipitate was determined by ICP-OES.

OB(O)c1ccccc1 [phenylboronic acid]
Precipitate concentration [mM] Dy (additive 20 mM): 4.33 mM | Precipitate concentration [mM] Nd (additive 20 mM): 5.02 mM | Supernatant concentration [mM] Dy (additive 20 mM): 0.31 mM | Supernatant concentration [mM] Nd (additive 20 mM): 0.08 mM | Precipitate concentration [mM] Dy (additive 250 mM): 3.36 mM | Precipitate concentration [mM] Nd (additive 250 mM): 4.12 mM | Supernatant concentration [mM] Dy (additive 250 mM): 1.22 mM | Supernatant concentration [mM] Nd (additive 250 mM): 0.87 mM

O=C(O)c1ccccc1O [salicylic acid]
Precipitate concentration [mM] Dy (additive 20 mM): 4.36 mM | Precipitate concentration [mM] Nd (additive 20 mM): 4.88 mM | Supernatant concentration [mM] Dy (additive 20 mM): 0.42 mM | Supernatant concentration [mM] Nd (additive 20 mM): 0.07 mM

O=C(O)CO [glycolate]
Precipitate concentration [mM] Dy (additive 5 mM): 2.61 mM | Precipitate concentration [mM] Nd (additive 5 mM): 4.64 mM | Supernatant concentration [mM] Dy (additive 5 mM): 1.73 mM | Supernatant concentration [mM] Nd (additive 5 mM): 0.09 mM | Precipitate concentration [mM] Dy (additive 10 mM): 1.71 mM | Precipitate concentration [mM] Nd (additive 10 mM): 4.92 mM | Supernatant concentration [mM] Dy (additive 10 mM): 2.93 mM | Supernatant concentration [mM] Nd (additive 10 mM): 0.20 mM | Precipitate concentration [mM] Dy (additive 15 mM): 1.11 mM | Precipitate concentration [mM] Nd (additive 15 mM): 4.54 mM | Supernatant concentration [mM] Dy (additive 15 mM): 3.13 mM | Supernatant concentration [mM] Nd (additive 15 mM): 0.35 mM | Precipitate concentration [mM] Dy (additive 20 mM): 0.82 mM | Precipitate concentration [mM] Nd (additive 20 mM): 4.33 mM | Supernatant concentration [mM] Dy (additive 20 mM): 3.82 mM | Supernatant concentration [mM] Nd (additive 20 mM): 0.64 mM

N#C[S-].[Na+] [thiocyanate]
Precipitate concentration [mM] Dy (additive 100 mM): 4.46 mM | Precipitate concentration [mM] Nd (additive 100 mM): 4.66 mM | Supernatant concentration [mM] Dy (additive 100 mM): 0.31 mM | Supernatant concentration [mM] Nd (additive 100 mM): 0.14 mM | Precipitate concentration [mM] Dy (additive 200 mM): 4.42 mM | Precipitate concentration [mM] Nd (additive 200 mM): 4.60 mM | Supernatant concentration [mM] Dy (additive 200 mM): 0.51 mM | Supernatant concentration [mM] Nd (additive 200 mM): 0.41 mM | Precipitate concentration [mM] Dy (additive 500 mM): 4.16 mM | Precipitate concentration [mM] Nd (additive 500 mM): 4.65 mM | Supernatant concentration [mM] Dy (additive 500 mM): 0.72 mM | Supernatant concentration [mM] Nd (additive 500 mM): 0.36 mM | Precipitate concentration [mM] Dy (additive 1000 mM): 3.26 mM | Precipitate concentration [mM] Nd (additive 1000 mM): 4.63 mM | Supernatant concentration [mM] Dy (additive 1000 mM): 1.70 mM | Supernatant concentration [mM] Nd (additive 1000 mM): 0.41 mM

O=C(O)CC(O)(CC(=O)O)C(=O)O [citrate]
Precipitate concentration [mM] Dy (additive 1 mM): 4.03 mM | Precipitate concentration [mM] Nd (additive 1 mM): 4.30 mM | Supernatant concentration [mM] Dy (additive 1 mM): 0.38 mM | Supernatant concentration [mM] Nd (additive 1 mM): 0.14 mM | Precipitate concentration [mM] Dy (additive 5 mM): 3.62 mM | Precipitate concentration [mM] Nd (additive 5 mM): 4.77 mM | Supernatant concentration [mM] Dy (additive 5 mM): 1.24 mM | Supernatant concentration [mM] Nd (additive 5 mM): 0.19 mM | Precipitate concentration [mM] Dy (additive 10 mM): 2.38 mM | Precipitate concentration [mM] Nd (additive 10 mM): 4.49 mM | Supernatant concentration [mM] Dy (additive 10 mM): 2.27 mM | Supernatant concentration [mM] Nd (additive 10 mM): 0.25 mM | Precipitate concentration [mM] Dy (additive 20 mM): 1.21 mM | Precipitate concentration [mM] Nd (additive 20 mM): 4.08 mM | Supernatant concentration [mM] Dy (additive 20 mM): 3.52 mM | Supernatant concentration [mM] Nd (additive 20 mM): 0.66 mM

O=CO [formate]
Precipitate concentration [mM] Dy (additive 50 mM): 4.33 mM | Precipitate concentration [mM] Nd (additive 50 mM): 5.17 mM | Supernatant concentration [mM] Dy (additive 50 mM): 0.51 mM | Supernatant concentration [mM] Nd (additive 50 mM): 0.07 mM | Precipitate concentration [mM] Dy (additive 100 mM): 3.84 mM | Precipitate concentration [mM] Nd (additive 100 mM): 4.85 mM | Supernatant concentration [mM] Dy (additive 100 mM): 1.09 mM | Supernatant concentration [mM] Nd (additive 100 mM): 0.42 mM | Precipitate concentration [mM] Dy (additive 250 mM): 3.33 mM | Precipitate concentration [mM] Nd (additive 250 mM): 5.38 mM | Supernatant concentration [mM] Dy (additive 250 mM): 1.68 mM | Supernatant concentration [mM] Nd (additive 250 mM): 0.11 mM | Precipitate concentration [mM] Dy (additive 500 mM): 2.09 mM | Precipitate concentration [mM] Nd (additive 500 mM): 4.93 mM | Supernatant concentration [mM] Dy (additive 500 mM): 2.51 mM | Supernatant concentration [mM] Nd (additive 500 mM): 0.22 mM

O=[N+]([O-])O [nitrate]
Precipitate concentration [mM] Dy (additive 100 mM): 4.27 mM | Precipitate concentration [mM] Nd (additive 100 mM): 4.39 mM | Supernatant concentration [mM] Dy (additive 100 mM): 0.36 mM | Supernatant concentration [mM] Nd (additive 100 mM): 0.14 mM | Precipitate concentration [mM] Dy (additive 200 mM): 3.89 mM | Precipitate concentration [mM] Nd (additive 200 mM): 3.97 mM | Supernatant concentration [mM] Dy (additive 200 mM): 0.41 mM | Supernatant concentration [mM] Nd (additive 200 mM): 0.15 mM | Precipitate concentration [mM] Dy (additive 500 mM): 4.16 mM | Precipitate concentration [mM] Nd (additive 500 mM): 4.46 mM | Supernatant concentration [mM] Dy (additive 500 mM): 0.82 mM | Supernatant concentration [mM] Nd (additive 500 mM): 0.14 mM | Precipitate concentration [mM] Dy (additive 1000 mM): 3.23 mM | Precipitate concentration [mM] Nd (additive 1000 mM): 4.61 mM | Supernatant concentration [mM] Dy (additive 1000 mM): 1.72 mM | Supernatant concentration [mM] Nd (additive 1000 mM): 0.15 mM

O=S(=O)(O)O [sulfate]
Precipitate concentration [mM] Dy (additive 100 mM): 4.52 mM | Precipitate concentration [mM] Nd (additive 100 mM): 4.90 mM | Supernatant concentration [mM] Dy (additive 100 mM): 0.34 mM | Supernatant concentration [mM] Nd (additive 100 mM): 0.07 mM | Precipitate concentration [mM] Dy (additive 250 mM): 4.09 mM | Precipitate concentration [mM] Nd (additive 250 mM): 4.96 mM | Supernatant concentration [mM] Dy (additive 250 mM): 0.47 mM | Supernatant concentration [mM] Nd (additive 250 mM): 0.08 mM | Precipitate concentration [mM] Dy (additive 500 mM): 3.57 mM | Precipitate concentration [mM] Nd (additive 500 mM): 4.30 mM | Supernatant concentration [mM] Dy (additive 500 mM): 1.00 mM | Supernatant concentration [mM] Nd (additive 500 mM): 0.59 mM | Precipitate concentration [mM] Dy (additive 1000 mM): 3.35 mM | Precipitate concentration [mM] Nd (additive 1000 mM): 4.61 mM | Supernatant concentration [mM] Dy (additive 1000 mM): 1.20 mM | Supernatant concentration [mM] Nd (additive 1000 mM): 0.34 mM

NCC(=O)O [glycine]
Precipitate concentration [mM] Dy (additive 50 mM): 3.60 mM | Precipitate concentration [mM] Nd (additive 50 mM): 4.90 mM | Supernatant concentration [mM] Dy (additive 50 mM): 1.01 mM | Supernatant concentration [mM] Nd (additive 50 mM): 0.09 mM | Precipitate concentration [mM] Dy (additive 100 mM): 2.79 mM | Precipitate concentration [mM] Nd (additive 100 mM): 4.61 mM | Supernatant concentration [mM] Dy (additive 100 mM): 1.99 mM | Supernatant concentration [mM] Nd (additive 100 mM): 0.42 mM | Precipitate concentration [mM] Dy (additive 150 mM): 2.44 mM | Precipitate concentration [mM] Nd (additive 150 mM): 4.91 mM | Supernatant concentration [mM] Dy (additive 150 mM): 2.25 mM | Supernatant concentration [mM] Nd (additive 150 mM): 0.11 mM | Precipitate concentration [mM] Dy (additive 200 mM): 1.86 mM | Precipitate concentration [mM] Nd (additive 200 mM): 4.69 mM | Supernatant concentration [mM] Dy (additive 200 mM): 2.85 mM | Supernatant concentration [mM] Nd (additive 200 mM): 0.28 mM

C[C@H](O)C(=O)O [l-lactate]
Precipitate concentration [mM] Dy (additive 5 mM): 3.15 mM | Precipitate concentration [mM] Nd (additive 5 mM): 4.33 mM | Supernatant concentration [mM] Dy (additive 5 mM): 1.59 mM | Supernatant concentration [mM] Nd (additive 5 mM): 0.51 mM | Precipitate concentration [mM] Dy (additive 10 mM): 2.08 mM | Precipitate concentration [mM] Nd (additive 10 mM): 4.49 mM | Supernatant concentration [mM] Dy (additive 10 mM): 2.47 mM | Supernatant concentration [mM] Nd (additive 10 mM): 0.21 mM | Precipitate concentration [mM] Dy (additive 15 mM): 1.60 mM | Precipitate concentration [mM] Nd (additive 15 mM): 4.38 mM | Supernatant concentration [mM] Dy (additive 15 mM): 3.21 mM | Supernatant concentration [mM] Nd (additive 15 mM): 0.49 mM | Precipitate concentration [mM] Dy (additive 20 mM): 1.18 mM | Precipitate concentration [mM] Nd (additive 20 mM): 4.33 mM | Supernatant concentration [mM] Dy (additive 20 mM): 3.57 mM | Supernatant concentration [mM] Nd (additive 20 mM): 0.50 mM

O=C(O)c1ccccn1 [picolinic acid]
Precipitate concentration [mM] Dy (additive 20 mM): 0 mM | Precipitate concentration [mM] Nd (additive 20 mM): 0 mM | Supernatant concentration [mM] Dy (additive 20 mM): 5 mM | Supernatant concentration [mM] Nd (additive 20 mM): 5 mM

O=C(O)[C@@H](O)c1ccccc1 [s-mandelic acid]
Precipitate concentration [mM] Dy (additive 20 mM): 1.13 mM | Precipitate concentration [mM] Nd (additive 20 mM): 4.52 mM | Supernatant concentration [mM] Dy (additive 20 mM): 3.77 mM | Supernatant concentration [mM] Nd (additive 20 mM): 0.47 mM

c1ccncc1 [pyridine]
Precipitate concentration [mM] Dy (additive 20 mM): 4.33 mM | Precipitate concentration [mM] Nd (additive 20 mM): 4.90 mM | Supernatant concentration [mM] Dy (additive 20 mM): 0.28 mM | Supernatant concentration [mM] Nd (additive 20 mM): 0.06 mM | Precipitate concentration [mM] Dy (additive 250 mM): 4.02 mM | Precipitate concentration [mM] Nd (additive 250 mM): 4.67 mM | Supernatant concentration [mM] Dy (additive 250 mM): 0.41 mM | Supernatant concentration [mM] Nd (additive 250 mM): 0.09 mM
